Data on 14 compounds can be found in PubChem BioAssay (NCI).

Test systems include MCF7 breast; NCI-H23 lung; SN12C renal; SNB-19 CNS; SR leukemia; T-47D breast; U251 CNS; UACC-257 melanoma; UO-31 renal; IGROV1 ovarian.
Holding throughout (experiment): NCI-60 cell line screen, 48 h

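Assay format: 96-well plates, 48-hour exposure. GI50 is the concentration that inhibits growth by half. TGI denotes the concentration required for complete inhibition of growth.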 Some results are limits rather than exact numbers.

For `O=c1[nH]c2nc3ccccc3c(=O)n2/c1=C/c1ccc(Cl)cc1`, the TGI was above 100 µM in the test with MCF7 breast; above 100 µM in the test on NCI-H23 lung; above 100 µM in the test on SN12C renal; 79.8 µM in the test on SNB-19 CNS; above 100 µM in the test on SR leukemia; above 100 µM in the test on T-47D breast. Moreover, the TGI with U251 CNS, with UACC-257 melanoma and in the test with UO-31 renal was above 100 µM each time.
With `CC(=O)NC1C(OCc2ccccc2)OC(CO)C(O)C1OCC(=O)N1CCCC1C(=O)N[C@@H](CCC(=O)NCCCCNc1c2ccccc2nc2cccc([N+](=O)[O-])c12)C(N)=O` (some centres undefined), the TGI with IGROV1 ovarian was 50.6 µM; in the test with MCF7 breast, 53.8 µM; in the test with NCI-H23 lung, 40.8 µM; in the test with SN12C renal, above 100 µM; with SNB-19 CNS, 62.4 µM; in the test with SR leukemia it was above 100 µM. Besides, the TGI was above 100 µM in the test on T-47D breast, 48.9 µM in the test with U251 CNS and above 100 µM in the test on UO-31 renal.
For `COC(=O)C1(NC(=O)C(CC(=O)OCc2ccccc2)NC(=O)OCc2ccccc2)CCCCCC1` (centres undefined), the TGI was above 100 µM in the test on IGROV1 ovarian; above 100 µM with MCF7 breast; above 100 µM with NCI-H23 lung; above 100 µM in the test on SNB-19 CNS; 87.4 µM in the test on SR leukemia; above 100 µM with T-47D breast. For the same compound, the TGI in the test on U251 CNS and in the test on UO-31 renal was above 100 µM in each case.
In the case of `C[C@@]1(O)C2CC3CC1(c1ccccc1)CC(/C3=N/O)/C2=N\O` (some centres undefined), the TGI with IGROV1 ovarian, in the test with NCI-H23 lung, with SN12C renal, in the test on SNB-19 CNS, in the test on SR leukemia and with T-47D breast was above 100 µM in each case. The TGI in the test on U251 CNS, in the test with UACC-257 melanoma and in the test with UO-31 renal was above 100 µM in each case.
On to `CN(C)CCNc1ccc2c(=O)n(CCN(C)C)c(=O)n3c4ccc(O)cc4c(=O)c1c23`, for which the TGI with IGROV1 ovarian was 0.53 µM; in the test with MCF7 breast, 0.634 µM; in the test with NCI-H23 lung, 0.186 µM; in the test on SNB-19 CNS, 0.729 µM; in the test on SR leukemia it was below 0.01 µM; in the test with T-47D breast, 0.717 µM. In addition, the TGI in the test on U251 CNS came to 0.439 µM; in the test on UACC-257 melanoma, 0.795 µM; in the test with UO-31 renal, 0.282 µM.
With `CCCCN(CCCC)Cc1cc(Nc2ccnc3cc(Cl)ccc23)ccc1O`, the GI50 in the test with IGROV1 ovarian was 7.36 µM; in the test on MCF7 breast, 8.91 µM; with NCI-H23 lung, 8.23 µM; in the test on SR leukemia, 6.59 µM; with T-47D breast it was 35.9 µM; in the test on U251 CNS, 7.82 µM. Also, the GI50 is 40.1 µM with UACC-257 melanoma and 1.38 µM with UO-31 renal. Moreover, the TGI in the test with IGROV1 ovarian, in the test with MCF7 breast, in the test with NCI-H23 lung, in the test on SR leukemia, with T-47D breast and in the test on U251 CNS was above 100 µM each time. Moreover, the TGI with UACC-257 melanoma and with UO-31 renal was above 100 µM each time.
For `N#CCCN(CCC#N)c1ccc(/C=C2\N=C(c3ccccc3)N(c3ccc(F)cc3)C2=O)cc1`, the TGI in the test with IGROV1 ovarian, in the test with MCF7 breast, in the test on SN12C renal, in the test with SNB-19 CNS, in the test on SR leukemia and in the test with T-47D breast was above 100 µM in each case. The TGI in the test with U251 CNS, with UACC-257 melanoma and in the test with UO-31 renal was above 100 µM throughout.
Take `COc1ccc([C@H]2[C@H]3COC(=O)[C@H]3C(C#N)=C3Sc4ccccc4N32)cc1`: the TGI is above 100 µM in the test with MCF7 breast; 78.8 µM in the test on NCI-H23 lung; 36.4 µM in the test on SN12C renal; above 100 µM in the test on SNB-19 CNS; above 82.5 µM in the test on T-47D breast; above 100 µM with U251 CNS. Moreover, the TGI in the test with UACC-257 melanoma and with UO-31 renal was above 100 µM in each case.
Take `N#Cc1c(-c2ccc(Cl)cc2)c2c(nn3c4ccc5ccccc5c4nnc23)[nH]c1=O`: the TGI with IGROV1 ovarian was 4.06 µM; with MCF7 breast, 14.8 µM; in the test with NCI-H23 lung it was 4.56 µM; with SN12C renal, 12.2 µM; with SNB-19 CNS it was 24.2 µM; in the test on T-47D breast, 2.66 µM. Moreover, the TGI with U251 CNS was 5.38 µM; with UACC-257 melanoma it was 18.8 µM; in the test with UO-31 renal it was 12.6 µM.
`Oc1cc(Cc2ccccc2)c(Cc2ccccc2)cc1O`: the TGI with IGROV1 ovarian, with MCF7 breast, with NCI-H23 lung, in the test with SN12C renal, with SNB-19 CNS and with T-47D breast was above 10 µM each time. For the same compound, the TGI in the test with U251 CNS, with UACC-257 melanoma and in the test with UO-31 renal was above 10 µM each time.
Turning to `CC(=O)Nc1ccc2c(C)c3c(nc2n1)[nH]c1ccccc13`, the TGI was 71.4 µM in the test on IGROV1 ovarian; above 100 µM in the test with MCF7 breast; 91.1 µM in the test on NCI-H23 lung; above 100 µM in the test with SN12C renal; 64.9 µM in the test with SR leukemia; 55.5 µM in the test on T-47D breast. Also, the TGI in the test on U251 CNS, with UACC-257 melanoma and in the test with UO-31 renal was above 100 µM throughout.
For `O=C(/C=C(/C=C/c1ccc2[nH]ccc2c1)OB(F)F)/C=C/c1ccc2[nH]ccc2c1`, the GI50 in the test on MCF7 breast was 0.376 µM; with SN12C renal, 2.6 µM; with SR leukemia, 0.451 µM; with T-47D breast, 1.99 µM; in the test with UACC-257 melanoma it was 12.2 µM; in the test with UO-31 renal it was 1.35 µM. Also, the TGI in the test with MCF7 breast was 15 µM; in the test with SN12C renal it was 18.9 µM; with SR leukemia it was above 100 µM; in the test on T-47D breast, above 100 µM; with UACC-257 melanoma, above 100 µM; in the test with UO-31 renal, 5.55 µM.
As for `Nc1n(CC(=O)c2ccccc2)nc2sc(-c3ccccc3)n[n+]12`, the TGI with IGROV1 ovarian was 56.6 µM; with MCF7 breast, above 100 µM; with NCI-H23 lung, 59.5 µM; with SN12C renal, above 100 µM; in the test on SNB-19 CNS, above 100 µM; in the test on T-47D breast, above 100 µM. In addition, the values for the TGI with U251 CNS, in the test with UACC-257 melanoma and in the test on UO-31 renal were 34.2 µM, above 100 µM and 40.3 µM, respectively.
For `CN(C)CC(O)c1ccc(Cl)c2ccccc12` (centres undefined), the TGI in the test on IGROV1 ovarian was above 85.7 µM; in the test on MCF7 breast, above 81.8 µM; with NCI-H23 lung, above 100 µM; in the test with SN12C renal it was above 100 µM; in the test on SNB-19 CNS, above 100 µM; with T-47D breast, 84.4 µM. Besides, the TGI in the test with U251 CNS is above 90.6 µM; in the test on UACC-257 melanoma, 38.2 µM; with UO-31 renal, above 62.2 µM.
